Drawing on US8134015B2, “Compound inhibiting in vivo phosphorous transport and medicine containing the same” (Kyowa Hakko Kirin Co., Ltd., priority 2003, dated 2012), this text covers IC50 and inhibition for 22 compounds.

Usually pIC50 stands for the negative decadic logarithm of the IC50, by convention in mol/L. For orientation: inhibition means the change of the read-out against control, counted positive when it falls.

pIC50: −log10 of the molar value. A value given as a limit tells only on which side of the number the result lay.

In one experiment the target is T1, rat NaPi-2b (Rattus norvegicus, UniProt Q9JJ09).
T1 construct: expressed in transfected cells; host or cells: Xenopus oocytes injected with cRNA
T1 sequence (Q9JJ09 1-695): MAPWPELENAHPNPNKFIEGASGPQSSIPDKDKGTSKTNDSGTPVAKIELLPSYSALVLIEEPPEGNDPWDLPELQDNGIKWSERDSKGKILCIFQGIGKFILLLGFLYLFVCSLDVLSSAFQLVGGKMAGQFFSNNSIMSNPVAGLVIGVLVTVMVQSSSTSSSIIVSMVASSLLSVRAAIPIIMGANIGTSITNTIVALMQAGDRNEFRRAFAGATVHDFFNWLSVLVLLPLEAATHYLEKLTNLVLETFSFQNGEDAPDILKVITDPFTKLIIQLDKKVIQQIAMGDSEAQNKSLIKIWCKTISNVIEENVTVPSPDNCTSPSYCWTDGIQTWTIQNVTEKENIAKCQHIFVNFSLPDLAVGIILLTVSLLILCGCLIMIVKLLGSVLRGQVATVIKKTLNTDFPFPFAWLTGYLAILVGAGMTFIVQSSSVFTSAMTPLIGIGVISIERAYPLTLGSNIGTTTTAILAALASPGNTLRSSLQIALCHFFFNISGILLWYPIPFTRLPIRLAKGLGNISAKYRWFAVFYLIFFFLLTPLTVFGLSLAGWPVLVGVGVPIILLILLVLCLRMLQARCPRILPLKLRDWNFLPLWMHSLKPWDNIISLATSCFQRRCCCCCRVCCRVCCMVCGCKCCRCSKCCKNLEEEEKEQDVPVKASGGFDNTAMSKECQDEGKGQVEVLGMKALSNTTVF
Put plainly: Sodium-dependent phosphate uptake of Xenopus oocytes which expressed NaPi-2b (32P). In kind it is cell-based. The conditions noted are these: for pIC50: Xenopus oocytes expressing rat NaPi-2b, 32P radioactive phosphorus, read-out: IC50 (phosphate uptake inhibitory activity); for inhibition at 300 µM: phosphate uptake, oocytes expressing rat NaPi-2b, determined from inhibition curve. The essentials: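 Inhibition at 300 μM and 100 μM was read off one inhibition curve of 32P phosphate uptake. Uptake was measured in Xenopus oocytes cultured 2 days after injection of cRNA for cloned rat NaPi-2b.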

The target of another experiment is T2, human NaPi-2a (Homo sapiens, UniProt Q06495).
T2 construct: expressed in transfected cells
T2 sequence (Q06495 1-639): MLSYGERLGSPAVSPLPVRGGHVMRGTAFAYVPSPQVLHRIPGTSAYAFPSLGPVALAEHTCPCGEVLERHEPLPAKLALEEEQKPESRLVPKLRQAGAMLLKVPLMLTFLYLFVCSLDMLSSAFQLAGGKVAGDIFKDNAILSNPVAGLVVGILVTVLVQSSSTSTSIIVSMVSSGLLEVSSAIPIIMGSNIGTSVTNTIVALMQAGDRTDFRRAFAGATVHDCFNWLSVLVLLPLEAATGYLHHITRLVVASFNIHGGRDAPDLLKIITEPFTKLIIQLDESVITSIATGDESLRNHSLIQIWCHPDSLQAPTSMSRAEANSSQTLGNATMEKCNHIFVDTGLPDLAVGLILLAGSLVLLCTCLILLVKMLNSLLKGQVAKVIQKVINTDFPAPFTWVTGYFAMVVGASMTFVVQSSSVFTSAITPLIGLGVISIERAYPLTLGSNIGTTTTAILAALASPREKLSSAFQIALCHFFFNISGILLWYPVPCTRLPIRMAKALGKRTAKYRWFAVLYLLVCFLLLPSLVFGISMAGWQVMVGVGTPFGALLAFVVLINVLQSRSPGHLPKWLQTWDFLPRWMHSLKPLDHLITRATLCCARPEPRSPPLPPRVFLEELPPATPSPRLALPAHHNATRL
Briefly: Sodium-dependent phosphate uptake of Xenopus oocytes which expressed NaPi-2a (32P). In kind it is cell-based. The following applies: phosphate uptake, Xenopus oocytes expressing human NaPi-2a; five concentration levels. The text has this:
Experiment of Sodium-Dependent Phosphate Uptake of Xenopus oocytes which Expressed NaPi-2a
In the test, a group with the addition of choline chloride (Choline Cl) was used as a negative control for nonspecific uptake, and PFA (phosphonoformic acid) was used as a positive control for phosphate transport inhibition.

In the case of `Cc1ccc(/C=N/NC(=O)c2c(NC(=O)c3cccc(CN4CCC(O)CC4)c3)sc3c2CCCC3)cc1` [Compound 634, 3-(4-Hydroxy-piperidin-1-ylmethyl)-N-[3-(4-methyl-benzylidene-hydrazinocarbonyl)-4,5,6,7-tetrahydro-benzo[b]thiophen-2-yl]-benzamide], the negative logarithm of the IC50 (pIC50) on rat NaPi-2b was 5.76; against human NaPi-2a it was 4.77.

For `O=C(Nc1ccc(N2CCCCC2)cc1C(=O)N/N=C/c1ccc(F)cc1)c1cccc(CN2CCc3nc4ncccc4cc3C2)c1` [Compound 895, 3-(7,8-Dihydro-5H-1,6,9-triaza-anthracen-6-ylmethyl)-N-[2-(4-fluoro-benzylidene-hydrazinocarbonyl)-4-piperidin-1-yl-phenyl]-benzamide], the pIC50 at rat NaPi-2b was greater than 6.52; on human NaPi-2a, 5.26.

As to `Cc1ccc(/C=N/NC(=O)c2cc(N3CCCCC3)ccc2NC(=O)c2cccc(CSCCC(=O)O)c2)cc1C` [Compound 886, 3-{3-[2-(3,4-Dimethyl-benzylidene-hydrazinocarbonyl)-4-piperidin-1-yl-phenylcarbamoyl]-benzylsulfanyl}-propionic acid], the pIC50 at rat NaPi-2b is 6.09; against human NaPi-2a it was 5.53.

With `CCN(CC)CCN(CCN(CC)CC)Cc1cccc(C(=O)Nc2scc(C)c2C(=O)N/N=C/c2ccc(F)cc2)c1` [Compound 840, 3-{[Bis-(2-diethylamino-ethyl)-amino]-methyl}-N-[3-(4-fluoro-benzylidene-hydrazinocarbonyl)-4-methyl-thiophen-2-yl]-benzamide], the pIC50 at rat NaPi-2b was 5.16; at human NaPi-2a it was 4.47.

`COc1ccc(/C=N/NC(=O)c2c(NC(=O)c3cccc(CN(CC(C)O)CC(C)O)c3)sc3c2CCCC3)cc1` (stereo not drawn) [Compound 632, 3-{[Bis-(2-hydroxy-propyl)-amino]-methyl}-N-[3-(4-methoxy-benzylidene-hydrazinocarbonyl)-4,5,6,7-tetrahydro-benzo-[b]thiophen-2-yl]-benzamide]: the pIC50 at rat NaPi-2b is greater than 6.00; on human NaPi-2a, 4.54.

For `Cc1ccc(/C=N/NC(=O)c2cc3ccccc3cc2NC(=O)c2cccc(CN(CC(C)O)CC(C)O)c2)cc1C` (stereo not drawn) [Compound 961, 3-{[Bis-(2-hydroxy-propyl)-amino]-methyl}-N-[3-(3,4-dimethyl-benzylidene-hydrazinocarbonyl)-naphthalen-2-yl]-benzamide], at rat NaPi-2b, the pIC50 was greater than 6.00.

Take `O=C(Nc1ccc(Br)cc1C(=O)N/N=C/c1cccc(F)c1)c1ccc(CSc2ccncc2)cc1` [Compound 255, N-[4-Bromo-2-(3-fluoro-benzylidene-hydrazinocarbonyl)-phenyl]-4-(pyridin-4-ylsulfanylmethyl)-benzamide]: on rat NaPi-2b, the pIC50 is 5.45.

For `CCN(CC)CCN(C)Cc1cccc(C(=O)Nc2c(C)csc2C(=O)N/N=C/c2ccc(C)c(C)c2)c1` [Compound 711, 3-{[(2-Diethylamino-ethyl)-methyl-amino]-methyl}-N-[2-(3,4-dimethyl-benzylidene-hydrazinocarbonyl)-4-methyl-thiophen-3-yl]-benzamide], at rat NaPi-2b, at 300 µM the inhibition was 81%.

Turning to `COc1ccc(C(=O)Nc2ccccc2C(=O)N/N=C/C(C)=C/c2ccccc2)cc1OC` [Compound 7, 3,4-Dimethoxy-N-[2-(2-methyl-3-phenyl-allylidene-hydrazinocarbonyl)-phenyl]-benzamide], the pIC50 on rat NaPi-2b was 5.15.

For `CC(O)CN(Cc1cccc(C(=O)Nc2ccsc2C(=O)N/N=C/c2ccc(Cl)c(C(F)(F)F)c2)c1)CC(C)O` (stereo not drawn) [Compound 993, 3-{[Bis-(2-hydroxy-propyl)-amino]-methyl}-N-[2-(4-chloro-3-trifluoromethyl-benzylidene-hydrazinocarbonyl)-thiophen-3-yl]-benzamide], on rat NaPi-2b, the inhibition at 300 µM came to 39.7%.

In the case of `O=C(Nc1sc2c(c1C(=O)N/N=C/c1cccc(F)c1)CCCC2)c1cccc(CN2CCN(CCO)CC2)c1` [Compound 624, N-[3-(3-Fluoro-benzylidene-hydrazinocarbonyl)-4,5,6,7-tetrahydro-benzo[b]thiophen-2-yl]-3-[4-(2-hydroxy-ethyl)-piperazin-1-ylmethyl]-benzamide], the pIC50 at rat NaPi-2b is greater than 5.52.

For the compound `CN(C)CCn1nnnc1SCc1cccc(C(=O)Nc2ccc(Cl)cc2C(=O)N/N=C/c2ccc(Cl)c(C(F)(F)F)c2)c1` [Compound 467, N-[4-Chloro-2-(4-chloro-3-trifluoromethyl-benzylidene-hydrazinocarbonyl)-phenyl]-3-[1-(2-dimethylamino-ethyl)-1H-tetrazol-5-ylsulfanylmethyl]-benzamide], the pIC50 at rat NaPi-2b is 5.10.

In the case of `Cc1ccc(/C=N/NC(=O)c2cc(Cl)ccc2NC(=O)c2cccc(CSc3nnnn3CCN(C)C)c2)cc1` [Compound 465, N-[4-Chloro-2-(4-methyl-benzylidene-hydrazinocarbonyl)-phenyl]-3-[1-(2-dimethylamino-ethyl)-1H-tetrazol-5-ylsulfanylmethyl]-benzamide], at rat NaPi-2b, the pIC50 is 5.13.

As to `COc1ccc(C(=O)Nc2ccc(Br)cc2C(=O)N/N=C/c2ccc(F)cc2)cc1OC` [Compound 61, N-[4-Bromo-2-(4-fluoro-benzylidene-hydrazinocarbonyl)-phenyl]-3,4-dimethoxy-benzamide], the negative-log IC50 (pIC50) on rat NaPi-2b was 6.51.

For the compound `COc1cc(OC)cc(C(=O)Nc2ccccc2C(=O)N/N=C/c2ccc(C)c(C)c2)c1` [Compound 93, N-[2-(3,4-Dimethyl-benzylidene-hydrazinocarbonyl)-phenyl]-3,5-dimethoxy-benzamide], at rat NaPi-2b, the pIC50 is 4.96.

Turning to `C=CCOc1ccc(/C=N/NC(=O)c2ccccc2NC(=O)c2ccc(OC)c(OC)c2)cc1` [Compound 52, N-[2-(4-Allyloxy-benzylidene-hydrazinocarbonyl)-phenyl]-3,4-dimethoxy-benzamide], the negative-log IC50 (pIC50) on rat NaPi-2b is 4.98.

As for `O=C(Nc1ccccc1C(=O)N/N=C/c1cccc(O)c1)c1ccc(F)cc1` [Compound 80, 4-Fluoro-N-[2-(3-hydroxy-benzylidene-hydrazinocarbonyl)-phenyl]-benzamide], on rat NaPi-2b, the pIC50 was 4.96.

As to `Cc1cc(/C=N/NC(=O)c2ccccc2NC(=O)c2cccnc2)oc1C` [Compound 218, N-[2-(4,5-Dimethyl-furan-2-ylmethylene-hydrazinocarbonyl)-phenyl]-nicotinamide], the pIC50 on rat NaPi-2b was 5.39.

With `CCN(CC)CCN(C)Cc1cccc(C(=O)Nc2sc3c(c2C(=O)N/N=C/c2cccc(F)c2)CCCC3)c1` [Compound 612, 3-{[(2-Diethylamino-ethyl)-methyl-amino]-methyl}-N-[3-(3-fluoro-benzylidene-hydrazinocarbonyl)-4,5,6,7-tetrahydro-benzo-[b]thiophen-2-yl]-benzamide], the negative-log IC50 (pIC50) at rat NaPi-2b was 5.63.

With `O=C(Nc1ccc(Cl)cc1C(=O)N/N=C/c1cccc(F)c1)c1cccc(CSCc2ccco2)c1` [Compound 680, N-[4-Chloro-2-(3-fluoro-benzylidene-hydrazinocarbonyl)-phenyl]-3-(furan-2-ylmethylsulfanylmethyl)-benzamide], the negative-log IC50 (pIC50) at rat NaPi-2b was 5.39.

`CCN(CC)CCNCc1cccc(C(=O)Nc2c(C)csc2C(=O)N/N=C/c2ccc(Cl)c(C(F)(F)F)c2)c1` [Compound 539, N-[2-(4-Chloro-3-trifluoromethyl-benzylidene-hydrazinocarbonyl)-4-methyl-thiophen-3-yl]-3-[(2-diethylamino-ethylamino)-methyl]-benzamide] yielded an inhibition at 300 µM against rat NaPi-2b of 88.4%.

Turning to `O=C(Nc1ccc(Cl)cc1C(=O)N/N=C/c1cccc(F)c1)c1cccc(CSCCS(=O)(=O)O)c1` [Compound 691, 2-{3-[4-Chloro-2-(3-fluoro-benzylidene-hydrazinocarbonyl)-phenylcarbamoyl]-benzylsulfanyl}-ethanesulfonic acid], the pIC50 at rat NaPi-2b was 4.01.
